Data reported in BindingDB's records for doi:10.1021/jm900431g (Boehringer Ingelheim Pharma, 2009).

Biological target: Vascular endothelial growth factor receptor 2 (Homo sapiens, UniProt P35968)
Test: Inhibition of human VEGFR2 expressed in Sf9 cells

Chain of Vascular endothelial growth factor receptor 2 (P35968 whole entry): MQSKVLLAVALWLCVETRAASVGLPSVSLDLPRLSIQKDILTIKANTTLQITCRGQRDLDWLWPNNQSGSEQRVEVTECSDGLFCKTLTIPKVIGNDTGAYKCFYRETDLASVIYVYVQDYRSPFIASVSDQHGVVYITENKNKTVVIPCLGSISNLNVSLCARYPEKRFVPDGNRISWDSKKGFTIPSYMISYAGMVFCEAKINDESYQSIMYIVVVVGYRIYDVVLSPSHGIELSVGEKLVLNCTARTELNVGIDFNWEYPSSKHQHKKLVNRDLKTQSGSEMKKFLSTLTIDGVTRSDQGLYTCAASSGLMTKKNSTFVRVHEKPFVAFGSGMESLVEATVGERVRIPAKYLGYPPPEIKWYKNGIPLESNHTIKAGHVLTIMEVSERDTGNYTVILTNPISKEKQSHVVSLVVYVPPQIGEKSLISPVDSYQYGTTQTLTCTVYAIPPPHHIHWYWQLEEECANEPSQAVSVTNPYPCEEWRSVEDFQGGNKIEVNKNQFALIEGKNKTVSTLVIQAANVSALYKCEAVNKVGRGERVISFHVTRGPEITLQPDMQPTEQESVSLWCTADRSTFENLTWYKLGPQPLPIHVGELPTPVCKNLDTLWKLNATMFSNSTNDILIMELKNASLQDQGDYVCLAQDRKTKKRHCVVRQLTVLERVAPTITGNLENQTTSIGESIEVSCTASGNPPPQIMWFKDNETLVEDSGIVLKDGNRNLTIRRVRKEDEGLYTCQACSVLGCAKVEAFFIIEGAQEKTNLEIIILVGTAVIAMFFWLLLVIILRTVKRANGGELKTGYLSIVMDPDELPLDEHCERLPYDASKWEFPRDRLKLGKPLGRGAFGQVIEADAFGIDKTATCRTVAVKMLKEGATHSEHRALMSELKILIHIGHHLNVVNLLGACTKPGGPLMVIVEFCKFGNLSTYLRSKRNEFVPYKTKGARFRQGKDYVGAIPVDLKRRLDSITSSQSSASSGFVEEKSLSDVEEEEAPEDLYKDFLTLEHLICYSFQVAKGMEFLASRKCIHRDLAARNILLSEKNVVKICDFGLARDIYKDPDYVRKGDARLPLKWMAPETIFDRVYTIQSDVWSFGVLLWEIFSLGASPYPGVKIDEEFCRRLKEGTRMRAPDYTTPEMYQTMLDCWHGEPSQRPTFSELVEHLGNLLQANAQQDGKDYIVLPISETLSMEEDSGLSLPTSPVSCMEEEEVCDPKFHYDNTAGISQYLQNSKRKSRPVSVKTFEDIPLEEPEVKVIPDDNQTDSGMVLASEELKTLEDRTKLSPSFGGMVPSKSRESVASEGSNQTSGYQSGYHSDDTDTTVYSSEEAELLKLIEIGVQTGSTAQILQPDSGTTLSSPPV

| IC50 | SMILES |
| --- | --- |
| > 10 µM | COC(=O)c1ccc2c(c1)NC(=O)C2C(=NC1CCN(C)CC1)c1ccccc1 (stereo not drawn) [(Z)-3-[(1-Methylpiperidin-4-ylamino)-phenyl-methylene]-2-oxo-2,3-dihydro-1H-indole-6-carboxylic Acid Methyl Ester] |
| 0.248 µM | N#Cc1ccc2c(c1)NC(=O)C2C(=Nc1ccc(CN2CCCCC2)cc1)c1ccccc1 (stereo not drawn) [(Z)-6-Cyano-3-[phenyl-(4-piperidin-1-ylmethyl-phenylamino)-methylene]-indolin-2-one] |
| > 10 µM | COC(=O)c1ccc2c(c1)NC(=O)C2C(=NC1CCC(NC(=O)CN(C)C)CC1)c1ccccc1 (stereo not drawn) [(Z)-methyl 3-((4-(2-(dimethylamino)acetamido)cyclohexylamino)(phenyl)methylene)-2-oxoindoline-6-carboxylate] |
